# Assay results: PMC9371699, “Cell-penetrating peptides enhance peptide vaccine accumulation and persistence in lymph nodes to drive immunogenicity” (Proceedings of the National Academy of Sciences of the …, 2022)
# Ends that are not written are not given here.
# Columns and labels:
# [1] = T cell activation-based serum stability assay; type: in vitro ADME; settings: 30 µM peptide in RPMI-1640 + 10% fresh mouse serum, 24 h, 37 °C, vs fresh peptide; titrated on splenocytes, CD69 read-out by flow cytometry
# Protocol: Peptides are also highly susceptible to proteolytic cleavage, resulting in a short half-life in vivo ([65], [66]). […] To test if the association of antigen-CPPs with serum components impacts peptide antigen stability, we used an in vitro antigen-presentation assay to functionally determine if T cells could still be activated by antigen-CPPs after incubation with serum proteases ([22]). Free gp100 peptide or gp100-CPP peptides were incubated for 24 h in 10% mouse serum, then added to splenocytes at titrated doses for 1 h to allow antigen uptake and processing, followed by culture with pmel-1 (gp100–specific) T cells for 24 h and assessment of pmel-1 CD69 expression (Fig. 6A and SI Appendix, Fig. S13). From these cocultures, we determined the peptide antigen concentration required for 50% of maximal CD69 up-regulation by the pmel-1 T cells (EC50) (Fig. 6B) and the change in EC50 for peptides preincubated with serum (ΔEC50) (Fig. 6C). […] In contrast, the ΔEC50 for gp100-CPPs ranged from 0.76 to 3.4 (Fig. 6C).
# Following prime and boost of mice with gp100 peptides, CD8^+ T cell responses were confirmed on day −1. […] CD69^+/CD8^+ T cell responses were measured by flow cytometry.
# Figure S13. […] Shown are plots of pmel activation, measured via CD69 upregulation, against the concentration of the fresh or serum -treated construct. […]
# proteinase K = proteinase K (Parengyodontium album, UniProt P06873); assay: Proteolysis LC-MS assay; type: in vitro ADME; settings: 5 µM peptide in PBS, 0.5 ng proteinase K, 37 °C, 2 hours, time points 0, 30, 60, 120 min, LC-MS (Q-TOF), no other serum components
# Source text: To gain more direct evidence of altered peptide stability, we used quadrupole time-of-flight liquid chromatography/MS (LC-QTOF-MS), to directly detect proteolytic degradation of pAntp and MPG conjugates in serum. […] We hypothesized that enhanced stability of the conjugates could reflect an intrinsic protective peptidase-/protease-blocking effect by the CPP or be an indirect effect mediated by binding of the conjugate to other serum proteins that sterically interfere with protease attack on the peptide. To distinguish these possibilities, we performed a similar experiment assessing proteolytic stability in the presence of purified proteinase K—a promiscuous protease that cleaves peptide bonds following hydrophobic amino acids—in the absence of other serum components.
# C18 column (2 μm particle size, 15 cm × 50 μm ID; Thermo Fisher Scientific). Mobile phase A was 0.1% formic acid in ultrapure water (v/v) and mobile phase B was 80% acetonitrile, 0.1% formic acid in ultrapure water (v/v). The nano-LC method was as follows: 1% B ramping in a linear manner to 41% B in A over 120 minutes, flow rate: 300 nL/min. Data were processed using PEAKS proteomics software.
# Serum stability LC-MS assay. […]
# Proteolysis LC-MS Assay. […] They were then resuspended 50:50 water:acetonitrile with 0.1% trifluoroacetic acid and reaction analyzed on an Agilent 6550 iFunnel Q -TOF MS. […]
# proteinase K, sequence (P06873 106-384, species assumed): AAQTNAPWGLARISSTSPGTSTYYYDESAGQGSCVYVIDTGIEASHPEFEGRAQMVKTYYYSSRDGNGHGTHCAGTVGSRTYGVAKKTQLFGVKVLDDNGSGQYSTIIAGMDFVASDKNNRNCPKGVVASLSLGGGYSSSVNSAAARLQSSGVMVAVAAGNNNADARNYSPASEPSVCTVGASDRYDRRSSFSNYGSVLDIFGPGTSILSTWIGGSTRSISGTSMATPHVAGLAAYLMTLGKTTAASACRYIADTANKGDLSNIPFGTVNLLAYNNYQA
substance,measurement,setting,value
AVGALEGPRNQDWLGVPRQL-NH2 [gp100],increase in EC50 (CD69 up-regulation) after incubation in serum,[1],~16 fold
same,proteolytic stability with purified proteinase K,proteinase K,rapid degradation
